Experimental data reported in PubChem BioAssay AID248 (DTP/NCI, 2004).
Inconclusive results and toxic doses are left out. No stated cut-off is given here; in the data, active means T/C of 150% or more; inactive means T/C below 125%.

System: L1210 leukemia ip in BDF1 mice, survival T/C
Assay: NCI In Vivo Anticancer Drug Screen. Data for tumor model L1210 Leukemia (intraperitoneal) in B6D2F1 (BDF1) mice
Details: endpoint: mean survival time, higher = longer survival
Summary of the method: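 Ratio derived from survival: compound-dosed mice over vehicle-dosed mice, all bearing a transplantable tumor.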

[1] = dose: 100.0 mg/kg/injection, schedule: Q01DX009 (ip), vehicle: saline with Tween-80
[2] = dose: 100.0 mg/kg/injection, schedule: Q04DX003 (ip), vehicle: saline with Tween-80
[3] = dose: 200.0 mg/kg/injection, schedule: Q01DX009 (ip), vehicle: saline with Tween-80
[4] = dose: 200.0 mg/kg/injection, schedule: Q04DX003 (ip), vehicle: saline with Tween-80
[5] = dose: 400.0 mg/kg/injection, schedule: Q01DX009 (ip), vehicle: saline with Tween-80
[6] = dose: 400.0 mg/kg/injection, schedule: Q04DX003 (ip), vehicle: saline with Tween-80
[7] = dose: 50.0 mg/kg/injection, schedule: Q01DX009 (ip), vehicle: Klucel (hydroxypropylcellulose) (HPC)
[8] = dose: 100.0 mg/kg/injection, schedule: Q01DX009 (ip), vehicle: Klucel (hydroxypropylcellulose) (HPC)
[9] = dose: 100.0 mg/kg/injection, schedule: Q04DX003 (ip), vehicle: Klucel (hydroxypropylcellulose) (HPC)
[10] = dose: 200.0 mg/kg/injection, schedule: Q04DX003 (ip), vehicle: Klucel (hydroxypropylcellulose) (HPC)
[11] = dose: 400.0 mg/kg/injection, schedule: Q04DX003 (ip), vehicle: Klucel (hydroxypropylcellulose) (HPC)
[12] = dose: 200.0 mg/kg/injection, schedule: Q01DX009 (ip), vehicle: Klucel (hydroxypropylcellulose) (HPC)
[13] = dose: 400.0 mg/kg/injection, schedule: Q01DX009 (ip), vehicle: Klucel (hydroxypropylcellulose) (HPC)
[14] = dose: 6.25 mg/kg/injection, schedule: Q01DX009 (ip), vehicle: saline
[15] = dose: 12.5 mg/kg/injection, schedule: Q01DX009 (ip), vehicle: saline
[16] = dose: 25.0 mg/kg/injection, schedule: Q01DX009 (ip), vehicle: saline
[17] = dose: 100.0 mg/kg/injection, schedule: Q01DX001 (ip), vehicle: carboxymethylcellulose (CMC)
[18] = dose: 200.0 mg/kg/injection, schedule: Q01DX001 (ip), vehicle: carboxymethylcellulose (CMC)
[19] = dose: 400.0 mg/kg/injection, schedule: Q01DX001 (ip), vehicle: carboxymethylcellulose (CMC)

Measured: T/C

COc1ccc(NC(=O)Oc2ccc3c(C)cc(=O)oc3c2)c(OC)c1
inactive: [1] 106 % of control | [2] 101 % of control | [3] 106 % of control | [4] 116 % of control | [5] 118 % of control | [6] 106 % of control

CC1(C)C(OC=O)C(C)(C)C1OC=O (stereo unspecified)
inactive: dose: 25.0 mg/kg/injection, schedule: Q01DX009 (ip), vehicle: Klucel (hydroxypropylcellulose) (HPC) 100 % of control | [7] 93 % of control | [8] 94 % of control | [9] 96 % of control | [10] 98 % of control

Cc1c(C)c2c(Cl)c3ccccc3nc2c2ccccc12
inactive: dose: 50.0 mg/kg/injection, schedule: Q04DX003 (ip), vehicle: Klucel (hydroxypropylcellulose) (HPC) 102 % of control | [9] 100 % of control | [10] 112 % of control | [11] 100 % of control

Cc1ccc(CNc2ccc(Cl)cc2)cc1
inactive: [8] 95 % of control | [9] 96 % of control | [12] 104 % of control | [10] 98 % of control | [11] 96 % of control

Cc1cc(C)c(-c2c(Br)c(OC(=O)c3ccc([N+](=O)[O-])cc3)c(-c3c(C)cc(C)c(Br)c3C)c(Br)c2OC(=O)c2ccc([N+](=O)[O-])cc2)c(C)c1Br
inactive: [8] 101 % of control | [9] 104 % of control | [12] 97 % of control | [10] 96 % of control | [13] 100 % of control | [11] 96 % of control

C[N+](C)(C)CCOC(=O)c1ccc(CBr)c(CBr)c1
inactive: [14] 97 % of control | dose: 6.25 mg/kg/injection, schedule: Q04DX003 (ip), vehicle: saline 96 % of control | [15] 99 % of control | dose: 12.5 mg/kg/injection, schedule: Q04DX003 (ip), vehicle: saline 96 % of control | [16] 104 % of control | dose: 25.0 mg/kg/injection, schedule: Q04DX003 (ip), vehicle: saline 98 % of control

Cc1ccc(NC(=O)Oc2ccc(C(C)(C)C)cc2)cc1NC(=O)Oc1ccc(C(C)(C)C)cc1
inactive: [8] 97 % of control | [12] 105 % of control | [13] 100 % of control

O=C(O)c1cccc(Br)c1.[Ni]
inactive: dose: 25.0 mg/kg/injection, schedule: Q04DX002 (ip), vehicle: Klucel (hydroxypropylcellulose) (HPC) 100 % of control | dose: 50.0 mg/kg/injection, schedule: Q04DX002 (ip), vehicle: Klucel (hydroxypropylcellulose) (HPC) 106 % of control

C(C[P+](c1ccccc1)(c1ccccc1)c1ccccc1)=C(c1ccccc1)c1ccccc1
inactive: dose: 10.0 mg/kg/injection, schedule: Q01DX001 (ip), vehicle: saline 103 % of control | dose: 40.0 mg/kg/injection, schedule: Q01DX001 (ip), vehicle: saline 95 % of control

CC1Cc2cccc3ccc(=O)n(c23)C1 (stereo unspecified)
inactive: [17] 91 % of control | [18] 100 % of control | [19] 98 % of control

Clc1c(Cl)c(CBr)c(Cl)c(CBr)c1Cl
inactive: [7] 104 % of control | [9] 103 % of control | [10] 109 % of control

CCC(C)(O)C#Cc1ccc(C)nc1 (stereo unspecified)
inactive: [2] 97 % of control | [4] 96 % of control | [6] 94 % of control

CC(=O)OC1CCC2(C)C(CCC3C2CCC2(C)C3CC(OC(C)=O)C2C(C)C2=NCC(C)CC2)C1 (stereo unspecified)
inactive: [9] 94 % of control | [10] 98 % of control | [11] 105 % of control

Oc1ccc(CCCc2ccc3c(c2)OCO3)cc1
inactive: dose: 100.0 mg/kg/injection, schedule: Q04DX002 (ip), vehicle: saline with Tween-80 104 % of control | dose: 200.0 mg/kg/injection, schedule: Q04DX002 (ip), vehicle: saline with Tween-80 104 % of control

FC(F)(F)c1cccc(C(OCCN2CCCC2)c2ccccc2)c1 (stereo unspecified)
inactive: [14] 92 % of control | [15] 95 % of control | [16] 110 % of control

CN(C)NP(=O)(c1ccccc1)c1ccccc1
inactive: dose: 100.0 mg/kg/injection, schedule: Q01DX001 (ip), vehicle: saline 98 % of control | dose: 200.0 mg/kg/injection, schedule: Q01DX001 (ip), vehicle: saline 95 % of control | dose: 400.0 mg/kg/injection, schedule: Q01DX001 (ip), vehicle: saline 97 % of control

Cc1ccc(N=Nc2ccc(C)cc2NC(=O)c2c(Br)c(Br)c(Br)c(Br)c2C(=O)O)cc1
inactive: [1] 93 % of control | [3] 93 % of control

Cc1cc(=O)[nH]c(Nc2nc3cc(Cl)c(Cl)cc3[nH]2)n1
inactive: [1] 92 % of control | [3] 90 % of control | [5] 97 % of control

CN(C)/C=N/N1CCCCCC1
inactive: dose: 100.0 mg/kg/injection, schedule: Q04DX003 (ip), vehicle: saline 98 % of control

CC(C)=C(Br)Br
inactive: dose: 75.0 mg/kg/injection, schedule: Q01DX001 (ip), vehicle: saline 94 % of control | dose: 150.0 mg/kg/injection, schedule: Q01DX001 (ip), vehicle: saline 94 % of control | dose: 300.0 mg/kg/injection, schedule: Q01DX001 (ip), vehicle: saline 96 % of control

Cc1ccc(S(=O)(=O)Oc2c(Cl)c(Cl)c(Cl)c(Cl)c2Cl)cc1
inactive: dose: 100.0 mg/kg/injection, schedule: Q01DX001 (ip), vehicle: other 94 % of control | dose: 100.0 mg/kg/injection, schedule: Q01DX009 (ip), vehicle: other 92 % of control | dose: 100.0 mg/kg/injection, schedule: Q04DX003 (ip), vehicle: other 92 % of control | dose: 200.0 mg/kg/injection, schedule: Q01DX001 (ip), vehicle: other 102 % of control | dose: 200.0 mg/kg/injection, schedule: Q01DX009 (ip), vehicle: other 86 % of control | dose: 200.0 mg/kg/injection, schedule: Q04DX003 (ip), vehicle: other 93 % of control | dose: 400.0 mg/kg/injection, schedule: Q01DX001 (ip), vehicle: other 88 % of control | dose: 400.0 mg/kg/injection, schedule: Q04DX003 (ip), vehicle: other 90 % of control

CCOc1ccc(OC(=O)c2ccc(O)cc2)cc1
inactive: [9] 106 % of control | [10] 101 % of control | [11] 96 % of control

O=CNc1ccc2ccccc2c1
inactive: dose: 37.5 mg/kg/injection, schedule: Q04DX003 (ip), vehicle: Klucel (hydroxypropylcellulose) (HPC) 92 % of control | dose: 75.0 mg/kg/injection, schedule: Q04DX003 (ip), vehicle: Klucel (hydroxypropylcellulose) (HPC) 97 % of control | dose: 150.0 mg/kg/injection, schedule: Q04DX003 (ip), vehicle: Klucel (hydroxypropylcellulose) (HPC) 103 % of control

O=C(N/N=C/c1ccccc1O)C(O)(c1ccccc1)c1ccccc1
inactive: [17] 101 % of control | [18] 97 % of control | [19] 97 % of control

O=C1C=CC(=O)N1
inactive: dose: 0.62 mg/kg/injection, schedule: Q01DX009 (ip), vehicle: saline 90 % of control | dose: 1.25 mg/kg/injection, schedule: Q01DX009 (ip), vehicle: saline 93 % of control | dose: 1.25 mg/kg/injection, schedule: Q04DX003 (ip), vehicle: saline 92 % of control | dose: 2.5 mg/kg/injection, schedule: Q01DX009 (ip), vehicle: saline 90 % of control | dose: 2.5 mg/kg/injection, schedule: Q04DX003 (ip), vehicle: saline 96 % of control | dose: 3.74 mg/kg/injection, schedule: Q01DX009 (ip), vehicle: saline with Tween-80 96 % of control | dose: 5.0 mg/kg/injection, schedule: Q01DX001 (ip), vehicle: acetone 95 % of control

COc1ccc(OC)c(NC(=O)Nc2ccccc2C(N)=O)c1
inactive: [9] 97 % of control | [10] 95 % of control | [11] 93 % of control

Cc1c(Cl)cccc1NC(=O)Nc1ccccc1
inactive: dose: 25.0 mg/kg/injection, schedule: Q01DX009 (ip), vehicle: DMSO 95 % of control | dose: 50.0 mg/kg/injection, schedule: Q01DX009 (ip), vehicle: DMSO 95 % of control | dose: 100.0 mg/kg/injection, schedule: Q01DX009 (ip), vehicle: DMSO 88 % of control | dose: 100.0 mg/kg/injection, schedule: Q04DX003 (sc), vehicle: olive oil, sesame oil, peanut oil 95 % of control | dose: 200.0 mg/kg/injection, schedule: Q04DX003 (sc), vehicle: olive oil, sesame oil, peanut oil 99 % of control | dose: 400.0 mg/kg/injection, schedule: Q04DX003 (sc), vehicle: olive oil, sesame oil, peanut oil 114 % of control
